From US9908877B2, “Imidazo[1,5-a]pyridinium ion fluorophores, and methods of making and using the same” (Indiana University Research and Technology Corporation, priority 2013, dated 2018)

What was measured:
[1] = pKa from fluorescence intensity versus pH; assay type: physicochemical; details: non-linear regression of fluorescence intensity versus pH, buffered water pH 2.5 to 7.5
Experimental: Method for Determining pKa
A pKa value is determined by plotting fluorescence intensity (Imax) at emission maxima against pH and fitting the result to the non-linear expression in equation (1) (i.e., eq.(1)). In eq (1), a and b are the molar coefficient of the acid (HA) and base (A^−) form, respectively, and c is the combined overall concentration of the acid and base form. i.e., c=[HA]+[A^−].

[2] = Fluorescence emission in a series of organic solvents; assay type: physicochemical; details: 30 μM, excited at 360 nm
Experimental: Compound 6 was placed in the series of organic solvents at a concentration of 30 μM, excited with radiation at 360 nm, and monitored for fluorescence emission. The organic solvent, intensity of fluorescence emission (ET), and maximum emission wavelength in nm and cm^−1, are set forth below in Table 2.

[3] = Dimethylsulfoxide (ET(30) 45.1)

## CCN(CC)c1ccc(-c2c3cccc[n+]3cn2-c2ccc(OC)cc2)cc1.[Cl-] [Compound 6, 1-(4-(diethylamino)phenyl)-2-(4-methoxyphenyl)-2H-imidazo[1,5-a]pyridin-4-ium chloride]
[1]
  pKa: 5
[2]; Acetonitrile (ET(30) 45.6)
  maximum emission Wavelength: 559 nm
  maximum emission wavenumber: 17889.09 cm⁻¹
[2]; Benzene (ET(30) 34.3)
  maximum emission Wavelength: 567 nm
  maximum emission wavenumber: 17636.68 cm⁻¹
[2]; Chloroform (ET(30) 39.1)
  maximum emission Wavelength: 533 nm
  maximum emission wavenumber: 18761.73 cm⁻¹
[2]; Dichloromethane (ET(30) 40.7)
  maximum emission Wavelength: 535 nm
  maximum emission wavenumber: 18691.59 cm⁻¹
[2]; [3]
  maximum emission Wavelength: 567 nm
  maximum emission wavenumber: 17636.68 cm⁻¹
[2]; Hexane (ET(30) 31)
  maximum emission Wavelength: 561 nm
  maximum emission wavenumber: 17825.31 cm⁻¹
[2]; Tetrahydrofuran (ET(30) 37.4)
  maximum emission Wavelength: 541 nm
  maximum emission wavenumber: 18484.29 cm⁻¹
[2]; Toluene (ET(30) 33.9)
  maximum emission Wavelength: 568 nm
  maximum emission wavenumber: 17605.63 cm⁻¹
[2]; Water (ET(30) 63.1)
  maximum emission Wavelength: 576 nm
  maximum emission wavenumber: 17361.11 cm⁻¹
